According to paper PMC9599520, “The Membrane Activity of the Amphibian Temporin B Peptide Analog TB_KKG6K Sheds Light on the Mechanism That Kills Candida albicans” (mSphere, 2022):
Structures can show the parent of a compound that is named as a salt. Where two headings read alike, the source gives them in different places. Where no end group is shown, it is not given here.

How the values were obtained:
C. albicans (CBS 5982) = assay: microbe, parasite or virus in culture; type: cell-based, Candida albicans; conditions: for IC90: Candida albicans, CBS5982, 24 h, 0.05× PDB, 30°C, 24 h, OD620, read-out: IC90 (inhibitory concentration that reduced growth by ≥90%)
C. albicans cells = assay: Uptake mechanism (fluorescence microscopy, 4°C or CCCP); type: cell-based, Candida albicans; conditions: 2 μM
[1] = system: C. albicans cell membrane; assay: Membrane depolarization assay with DiSC3(5) dye; type: cell-based, Candida albicans; conditions: 1 × 10^6 cells/mL, 30°C, 60 min, PCγ^C-terminal 32 μM
[2] = Vesicle leakage assay (ANTS-DPX), all LUVs; type: biochemical; conditions: 32 μM peptide, negative control, 1% Triton X-100 = 100%
[3] = Vesicle leakage assay, PG; type: biochemical; conditions: PG-LUVs; 32 μM peptide (1.5:1), negative control; 50 μM lipid, 30 min, 37°C; mean ± SD
[4] = Vesicle leakage assay, PG-PE-CL; type: biochemical; conditions: PG-PE-CL-LUVs; 32 μM peptide (1.5:1), negative control; 50 μM lipid, 30 min, 37°C; mean ± SD
[5] = Vesicle leakage assay, PC; type: biochemical; conditions: PC-LUVs; 32 μM peptide (1.5:1), negative control; 50 μM lipid, 30 min, 37°C; mean ± SD
[6] = Vesicle leakage assay, PC-sphingomyelin; type: biochemical; conditions: PC-sphingomyelin-LUVs; 32 μM peptide (1.5:1), negative control; 50 μM lipid, 30 min, 37°C; mean ± SD
[7] = Vesicle leakage assay, PC-ceramide; type: biochemical; conditions: PC-ceramide-LUVs; 32 μM peptide (1.5:1), negative control; 50 μM lipid, 30 min, 37°C; mean ± SD
[8] = Vesicle leakage assay, PC-PI; type: biochemical; conditions: PC-PI-LUVs; 32 μM peptide (1.5:1), negative control; 50 μM lipid, 30 min, 37°C; mean ± SD
[9] = Vesicle leakage assay, PC-PE; type: biochemical; conditions: PC-PE-LUVs; 32 μM peptide (1.5:1), negative control; 50 μM lipid, 30 min, 37°C; mean ± SD
[10] = Vesicle leakage assay, PC-PS; type: biochemical; conditions: PC-PS-LUVs; 32 μM peptide (1.5:1), negative control; 50 μM lipid, 30 min, 37°C; mean ± SD
[11] = Vesicle leakage assay, PC-ergosterol; type: biochemical; conditions: PC-ergosterol-LUVs; 32 μM peptide (1.5:1), negative control; 50 μM lipid, 30 min, 37°C; mean ± SD
[12] = Vesicle leakage assay, PC-PE-ergosterol; type: biochemical; conditions: PC-PE-ergosterol-LUVs; 32 μM peptide (1.5:1), negative control; 50 μM lipid, 30 min, 37°C; mean ± SD
[13] = Vesicle leakage assay, PC-PS-ergosterol; type: biochemical; conditions: PC-PS-ergosterol-LUVs; 32 μM peptide (1.5:1), negative control; 50 μM lipid, 30 min, 37°C; mean ± SD
[14] = Vesicle leakage assay, PC-CL; type: biochemical; conditions: PC-CL-LUVs; 32 μM peptide (1.5:1), negative control; 50 μM lipid, 30 min, 37°C; mean ± SD
[15] = cited from earlier work

CCCCCCCCN=c1ccn(CCCCCCCCCCn2ccc(=NCCCCCCCC)cc2)cc1 [Octenidine, N,N′-(1,10 decanediyldi-1[4H]-pyridinyl-4-ylidene)-bis-(1-octanamine) dihydrochloride]
IC90 (C. albicans (CBS 5982); 1 × 10^4 cells/mL): 1 µM
IC90 (C. albicans (CBS 5982); 1 × 10^6 cells/mL): 2 µM

BODIPY-PAFB: P. chrysogenum antifungal protein B (PAFB) conjugated with the green fluorophore BODIPY; control for energy-dependent uptake (LSKFGGECSLKHNTCTYLKGGKNHVVNCGSAANKKCKSDRHHCEYDEHHKRVDCQTPV; cysteine pairing not given here; also: BODIPY label, position not given here; UniProt D0EXD3 35-92, looked up)
uptake into C. albicans cells (C. albicans cells; 30°C, standard condition, 45 min for BODIPY-PAFB): taken up by C. albicans
uptake into C. albicans cells with reduced respiration and metabolism (C. albicans cells; 4°C, or 30°C with 100 μM CCCP, 15 min (FITC-TB_KKG6K), 45 min (BODIPY-PAFB)): no internalization

CGGASCRG [PCγ^C-terminal, negative control peptide CGGASCRG derived from the C-terminal part of Penicillium chrysogenum antifungal protein C (PAFC), reference compound]
fungal growth inhibition (C. albicans (CBS 5982); peptide concentration 0 to 32 μM): No fungal growth inhibition
membrane depolarization, DiSC3(5) fluorescence intensity ([1]; TB analog 0.5, 1, 2 μM, Triton X-100 1% (wt/vol)): No membrane depolarization
% Leakage [2]: ≤ 2%
% Leakage [3]: 1.9 ± 1%
% Leakage [4]: −1.2 ± 1.6%
% Leakage [5]: 1.4 ± 1.4%
% Leakage [6]: 0.6 ± 0.8%
% Leakage [7]: 1.3 ± 0.2%
% Leakage [8]: 0.4 ± 0.5%
% Leakage [9]: 1.4 ± 0.6%
% Leakage [10]: 0.9 ± 2.7%
% Leakage [11]: 1.1 ± 0.9%
% Leakage [12]: 1.7 ± 2.0%
% Leakage [13]: 2.0 ± 1.4%
% Leakage [14]: 0.7 ± 0.4%

Temporin B [reference compound]
hydrophobicity (hydrophobic amino acids) [15]: 61%
positive net charge ([15]; pH 7): +0.9

Triton X-100 [reference compound]
membrane depolarization, DiSC3(5) fluorescence intensity ([1]; […]): fast and sustained increase in fluorescence intensity
